Measured values: patent US7994156B2 (priority 2007, dated 2011)

How the values were obtained:
[1] = molecular target: T1, dopamine (DA) reuptake in synaptosomes (Rattus norvegicus, UniProt P23977); experiment: Inhibition of DA reuptake in synaptosomes; assay type: biochemical; settings: 3H-DA, read-out: DA-uptake IC50
T1 construct: in synaptosomes as described in WO 97/16451; from tissue
Protocol: (§1) A compound of the invention was tested for its ability to inhibit the reuptake of the monoamine neurotransmitters dopamine (DA) noradrenaline (NA) and serotonine (5-HT) in synaptosomes as described in WO 97/16451.
(§2) The test values are given as IC50 (the concentration (μM) of the test substance which inhibits the specific binding of ^3H-DA, ^3H-NA, or ^3H-5-HT by 50%).

[2] = molecular target: T2, serotonine (5-HT) reuptake in synaptosomes (Rattus norvegicus, UniProt P31652); experiment: Inhibition of 5-HT reuptake in synaptosomes; assay type: biochemical; settings: 3H-5-HT, read-out: 5-HT-uptake IC50
T2 construct: serotonine (5-HT) in synaptosomes as described in WO 97/16451; from tissue
Protocol: as §1, §2

[3] = molecular target: T3, α7-subtype of nicotinic receptors (Rattus norvegicus, UniProt Q05941); experiment: biochemical; assay type: binding
T3 construct: Cerebral cortices from male Wistar rats (150-250 g) are homogenised; from tissue; host or cells: cerebral cortex of male Wistar rats, washed membrane pellet
T3 sequence (Q05941 23-502): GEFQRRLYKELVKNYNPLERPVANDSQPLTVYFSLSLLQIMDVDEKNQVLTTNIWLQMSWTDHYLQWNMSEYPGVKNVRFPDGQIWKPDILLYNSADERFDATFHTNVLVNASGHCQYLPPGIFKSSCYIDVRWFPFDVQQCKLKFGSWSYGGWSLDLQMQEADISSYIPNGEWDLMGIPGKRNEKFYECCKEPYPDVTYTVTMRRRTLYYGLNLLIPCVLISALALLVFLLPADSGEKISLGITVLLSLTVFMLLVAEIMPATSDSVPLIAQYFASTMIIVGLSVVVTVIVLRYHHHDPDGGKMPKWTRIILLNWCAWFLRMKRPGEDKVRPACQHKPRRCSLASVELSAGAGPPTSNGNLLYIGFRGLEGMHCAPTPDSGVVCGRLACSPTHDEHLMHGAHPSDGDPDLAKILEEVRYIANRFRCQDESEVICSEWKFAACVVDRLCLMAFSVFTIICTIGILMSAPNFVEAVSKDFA

T1 sequence (P23977 whole entry): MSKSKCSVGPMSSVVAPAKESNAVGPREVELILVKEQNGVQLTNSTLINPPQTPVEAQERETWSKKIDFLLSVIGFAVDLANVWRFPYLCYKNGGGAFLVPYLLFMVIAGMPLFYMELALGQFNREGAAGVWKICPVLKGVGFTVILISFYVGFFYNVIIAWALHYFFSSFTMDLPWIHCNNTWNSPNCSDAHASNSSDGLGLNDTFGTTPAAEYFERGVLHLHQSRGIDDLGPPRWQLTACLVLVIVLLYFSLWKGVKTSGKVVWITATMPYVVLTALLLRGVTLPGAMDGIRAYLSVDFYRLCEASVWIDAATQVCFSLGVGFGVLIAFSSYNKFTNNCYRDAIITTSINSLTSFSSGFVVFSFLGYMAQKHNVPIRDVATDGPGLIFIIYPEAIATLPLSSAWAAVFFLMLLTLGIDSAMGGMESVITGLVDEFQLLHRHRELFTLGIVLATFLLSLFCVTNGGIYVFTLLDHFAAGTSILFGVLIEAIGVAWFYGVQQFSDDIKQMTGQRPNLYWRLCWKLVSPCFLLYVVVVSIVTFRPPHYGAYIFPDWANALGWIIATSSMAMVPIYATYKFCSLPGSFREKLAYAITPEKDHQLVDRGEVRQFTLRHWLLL
T2 sequence (P31652 whole entry): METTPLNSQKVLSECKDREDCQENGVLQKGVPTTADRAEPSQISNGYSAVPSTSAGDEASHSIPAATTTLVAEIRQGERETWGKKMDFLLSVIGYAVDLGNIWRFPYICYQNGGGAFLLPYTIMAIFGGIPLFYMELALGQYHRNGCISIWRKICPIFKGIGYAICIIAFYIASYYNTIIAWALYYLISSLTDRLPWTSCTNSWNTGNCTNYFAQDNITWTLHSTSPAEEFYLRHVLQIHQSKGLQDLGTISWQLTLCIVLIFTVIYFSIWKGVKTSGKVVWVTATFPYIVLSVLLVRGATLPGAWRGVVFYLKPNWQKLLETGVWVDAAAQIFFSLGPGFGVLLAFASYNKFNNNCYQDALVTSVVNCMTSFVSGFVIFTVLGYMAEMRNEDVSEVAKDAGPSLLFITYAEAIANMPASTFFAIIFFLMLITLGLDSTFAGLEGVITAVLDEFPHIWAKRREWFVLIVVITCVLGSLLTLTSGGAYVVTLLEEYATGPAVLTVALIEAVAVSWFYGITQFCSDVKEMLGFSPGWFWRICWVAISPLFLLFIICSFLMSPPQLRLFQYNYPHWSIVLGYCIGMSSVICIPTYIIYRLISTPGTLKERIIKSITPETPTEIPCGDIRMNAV

O=C(Oc1ccc(N=Nc2ccccc2)cc1)N1CCN2CCC1CC2 [1,4-Diaza-bicyclo[3.2.2]nonane-4-carboxylic acid 4-phenylazo-phenyl ester]
IC50 [1]: 32 nM
IC50 [2]: 13000 nM
IC50 [3]: 1600 nM
